Assay results published in ChEMBL document CHEMBL3044672, “N9- and N7-(Chloromethyl Phenymethyl)Chloropurine Derivatives from , '-Dichloroxylenes: Synthesis and Anticancer Activity” (2005).

How the values were obtained:
Assay type in all cases: functional
SK-OV-3 = test: Cytotoxicity against Homo sapiens (human) SKOV3 cells after 48 hr by sulforhodamine B assay; conditions: SK-OV-3, 48 h
OVCAR-5 = test: Cytotoxicity against Homo sapiens (human) OVCAR5 cells after 48 hr by sulforhodamine B assay; conditions: OVCAR-5, 48 h
OVCAR-4 = test: Cytotoxicity against Homo sapiens (human) OVCAR4 cells after 48 hr by sulforhodamine B assay; conditions: OVCAR-4, 48 h
IGROV-1 = test: Cytotoxicity against Homo sapiens (human) IGROV1 cells after 48 hr by sulforhodamine B assay; conditions: IGROV-1, 48 h
OVCAR-3 = test: Cytotoxicity against Homo sapiens (human) OVCAR3 cells after 48 hr by sulforhodamine B assay; conditions: OVCAR-3, 48 h
SK-MEL-5 = test: Cytotoxicity against Homo sapiens (human) SK-MEL-5 cells after 48 hr by sulforhodamine B assay; conditions: SK-MEL-5, 48 h
SK-MEL-2 = test: Cytotoxicity against Homo sapiens (human) SK-MEL-2 cells after 48 hr by sulforhodamine B assay; conditions: SK-MEL-2, 48 h
SNB-75 = test: Cytotoxicity against Homo sapiens (human) SNB75 cells after 48 hr by sulforhodamine B assay; conditions: SNB-75, 48 h
T47D = test: Cytotoxicity against Homo sapiens (human) T47D cells after 48 hr by sulforhodamine B assay
MDA-MB-435 = test: Cytotoxicity against Homo sapiens (human) MDA-MB-435 cells after 48 hr by sulforhodamine B assay; conditions: MDA-MB-435, 48 h
Hs-578T = test: Cytotoxicity against Homo sapiens (human) Hs 578T cells after 48 hr by sulforhodamine B assay
MDA-MB-231 = test: Cytotoxicity against Homo sapiens (human) MDA-MB-231 cells after 48 hr by sulforhodamine B assay; conditions: MDA-MB-231, 48 h
DU-145 = test: Cytotoxicity against Homo sapiens (human) DU145 cells after 48 hr by sulforhodamine B assay; conditions: DU-145, 48 h
MCF7 = test: Cytotoxicity against Homo sapiens (human) MCF7 cells after 48 hr by sulforhodamine B assay; conditions: MCF7, 48 h
PC-3 = test: Cytotoxicity against Homo sapiens (human) PC3 cells after 48 hr by sulforhodamine B assay; conditions: PC-3, 48 h
TK-10 = test: Cytotoxicity against Homo sapiens (human) TK10 cells after 48 hr by sulforhodamine B assay; conditions: TK-10, 48 h
RXF 393 = test: Cytotoxicity against Homo sapiens (human) RXF393 cells after 48 hr by sulforhodamine B assay; conditions: RXF 393, 48 h
SF-295 = test: Cytotoxicity against Homo sapiens (human) SF295 cells after 48 hr by sulforhodamine B assay; conditions: SF-295, 48 h
SW-620 = test: Cytotoxicity against Homo sapiens (human) SW620 cells after 48 hr by sulforhodamine B assay; conditions: SW-620, 48 h
KM12 = test: Cytotoxicity against Homo sapiens (human) KM12 cells after 48 hr by sulforhodamine B assay; conditions: KM12, 48 h
HT-29 = test: Cytotoxicity against Homo sapiens (human) HT-29 cells after 48 hr by sulforhodamine B assay; conditions: HT-29, 48 h
HCT-116 = test: Cytotoxicity against Homo sapiens (human) HCT116 cells after 48 hr by sulforhodamine B assay; conditions: HCT-116, 48 h
HCC 2998 = test: Cytotoxicity against Homo sapiens (human) HCC2998 cells after 48 hr by sulforhodamine B assay; conditions: HCC 2998, 48 h
COLO 205 = test: Cytotoxicity against Homo sapiens (human) COLO205 cells after 48 hr by sulforhodamine B assay; conditions: COLO 205, 48 h
NCI-H460 = test: Cytotoxicity against Homo sapiens (human) NCI-H460 cells after 48 hr by sulforhodamine B assay; conditions: NCI-H460, 48 h
NCI-H322M = test: Cytotoxicity against Homo sapiens (human) NCI-H322M cells after 48 hr by sulforhodamine B assay
HOP-62 = test: Cytotoxicity against Homo sapiens (human) HOP62 cells after 48 hr by sulforhodamine B assay; conditions: HOP-62, 48 h
EKVX = test: Cytotoxicity against Homo sapiens (human) EKVX cells after 48 hr by sulforhodamine B assay
RPMI-8226 = test: Cytotoxicity against Homo sapiens (human) RPMI8226 cells after 48 hr by sulforhodamine B assay; conditions: RPMI-8226, 48 h
MOLT-4 = test: Cytotoxicity against Homo sapiens (human) MOLT4 cells after 48 hr by sulforhodamine B assay; conditions: MOLT-4, 48 h
SF-268 = test: Cytotoxicity against Homo sapiens (human) SF268 cells assessed as cell growth at 10^-4 M after 48 hr by […] assay; conditions: SF-268, 48 h, read-out: Activity
[1] = read-out: LC50 (the source's name)

Nc1nc(Cl)c2ncn(Cc3ccc(CCl)cc3)c2n1
LC50 (SK-OV-3): 64.5 µM
TGI (SK-OV-3): 30.9 µM
TGI (OVCAR-5): 14.8 µM
CC50 (OVCAR-5; [1]): > 100 µM
LC50 (concentration killing 50% of cells) (OVCAR-4): 57.5 µM
TGI (OVCAR-4): 30.2 µM
LC50 (IGROV-1): 53.7 µM
TGI (IGROV-1): 22.9 µM
LC50 (OVCAR-3): 22.9 µM
TGI (OVCAR-3): 5.5 µM
LC50 (SK-MEL-5): 63.1 µM
TGI (SK-MEL-5): 31 µM
LC50 (concentration killing 50% of cells) (SK-MEL-2): 74.1 µM
TGI (SK-MEL-2): 28.8 µM
TGI (SNB-75): 91.2 µM
CC50 (SNB-75; [1]): > 100 µM
LC50 (T47D): > 100 µM
TGI (T47D): 39.8 µM
LC50 (MDA-MB-435): > 100 µM
TGI (MDA-MB-435): 42.7 µM
LC50 (Hs-578T): > 100 µM
TGI (Hs-578T): > 100 µM
LC50 (MDA-MB-231): 91.2 µM
TGI (MDA-MB-231): 34.7 µM
LC50 (DU-145): 43.6 µM
TGI (DU-145): 19.5 µM
LC50 (concentration killing 50% of cells) (MCF7): > 100 µM
TGI (MCF7): 17 µM
LC50 (concentration causing 50% cell kill) (PC-3): 70.8 µM
TGI (PC-3): 25.1 µM
TGI (TK-10): 40.7 µM
CC50 (TK-10; [1]): 97.7 µM
TGI (RXF 393): 7.24 µM
CC50 (RXF 393; [1]): 35.5 µM
TGI (SF-295): 27.5 µM
CC50 (SF-295; [1]): 72.4 µM
TGI (SW-620): 13.8 µM
CC50 (SW-620; [1]): 87.1 µM
TGI (KM12): 22.9 µM
CC50 (KM12; [1]): 57.5 µM
TGI (HT-29): 27.5 µM
CC50 (HT-29; [1]): 77.6 µM
TGI (HCT-116): 15 µM
CC50 (HCT-116; [1]): 56.2 µM
TGI (HCC 2998): 8.91 µM
CC50 (HCC 2998; [1]): 75.9 µM
TGI (COLO 205): 13.5 µM
CC50 (COLO 205; [1]): 42.7 µM
TGI (NCI-H460): 9.95 µM
CC50 (NCI-H460; [1]): 63.1 µM
TGI (NCI-H322M): 42.7 µM
CC50 (NCI-H322M; [1]): 87.1 µM
TGI (HOP-62): 27.5 µM
CC50 (HOP-62; [1]): 91.2 µM
TGI (EKVX): 7.24 µM
CC50 (EKVX; [1]): 28.2 µM
TGI (RPMI-8226): > 100 µM
CC50 (RPMI-8226; [1]): > 100 µM
TGI (MOLT-4): > 100 µM
CC50 (MOLT-4; [1]): > 100 µM
growth at 100 µM (SF-268): 90%
